From patent publication US8318954B2, “Cleavable carnitine compound” (Nou Life Sciences, Inc., priority 2006, dated 2012)
Entries after “also recorded” stand apart in the source; their conditions may differ.

Tests used:
[1] = system: streptozotocin-induced diabetic rats; settings: 20 mg/kg/day for two weeks, six weeks after diabetes induction; vs untreated diabetic rats; cited from earlier work
diabetic rats [2] = settings: streptozocin diabetic rats, sciatic nerve; amount administered not specified; cited from earlier work
[3] = system: diabetic polyneuropathy patients; settings: cited from earlier work
rats = settings: 10 mg/kg cisplatin s.c. seven days, oral 300 mg/kg acetyl L-carnitine, 300 mg/kg carnitine mixture, 50 mg/kg α-lipoic acid; cited from earlier work
Wobbler mice = settings: twenty days oral, acetyl L-carnitine 200 mg/kg, carnitine mixture 200 mg/kg, α-lipoic acid 50 mg/kg; cited from earlier work
mice and rats = settings: mice and rats, cited from earlier work
diabetic rats [4] = settings: diabetic rat, 30 days after sciatic nerve cutting; diet: 200 mg/kg acetyl L-carnitine, 200 mg/kg carnitine mixture, 50 mg/kg α-lipoic acid daily; cited from earlier work
[5] = Hydrolysis study of LC Conjugate (pH/time study, followed by TLC); format: physicochemical
Procedure: Control: Free lipoic acid 1% solution in methanol/water
Substrate: LC Conjugate, 3% solution in methanol
A study on the stability and cleavability of LC Conjugate was performed in water at pH ranged from 5.5 to 8.0 at RT (20° C.).
The pH was adjusted using NaOH and HCl solutions.
Since substrate and cleaved products are non-UV sensitive, TLC was used to follow the progress of hydrolysis.

C. elegans [6] = assay: Thermal avoidance (TAV) 11 step dose response testing; format: in vivo; settings: highest concentration of LC, laser intensities 0% to 100% in 10% intervals, quadruplicate
Procedure: One 24 well microtiter plate was set up and incubated overnight on the shaker at 20° C. Each well on the plate was set up with 600 L3/L4-stage N2 animals in NGM with a 1:20 dilution of concentrated HB101 E. coli (food source) in a volume of 300 μl. Before the animal/HB101 solution was added, test compounds were pipetted into wells. For DMSO controls and compound stocks/dilutions in DMSO (LC) 3 μl was added to each well (1:100 dilutions). No OD620 measurements were taken but the animals were visually scored after 22 h incubation).
Dose Responses—setup & general notes on analysis: Same as for previous dose response experiments except that the data collection settings were modified. Per plate settings for the dose response experiments were as follows: […]

C. elegans [7] = assay: Toxicity testing in C. elegans, 96 well plate, bacterial clearance (OD620); format: in vivo; settings: highest concentration tested, 2 mM; L1-stage N2 animals, OD620 up to 44 hours; listed as LC
Procedure: The work plan included a i) characterization of the compounds for toxicity in C. elegans and then, using subtoxic concentrations, a ii) characterization of compound effects on neuronal sensitivity as detected by TAV technology. Toxicity characterization follows a well established standard operating protocol used in previous toxicity-type assays in C. elegans. The initial TAV characterization of compound-mediated effects on C. elegans used a number of compound concentrations and incubation times that were selected by NemaRx as being most likely to detect any TAV-related effects that the compounds may have. […] 0% provides a ‘background’ measure, 6% typically gives intermediate TAV responses (and as such should provide a good starting point to detect compound-mediated increased TAV responses), and 12% usually gives robust responses. No obvious effects were detected for either of the four compounds. While the experimental setup provides a good first pass, the limitation lies in the relatively small number of animals that are assayed at each intensity (30). Subtle effects compound-mediated up-regulation at 6% laser intensity may be missed. • Single Intensity Testing: The two highest non-toxic compound concentrations for each of the four compounds were tested at 6% laser intensity. The number of datapoints collected was between 50-80 LA and >100 for the three other compounds. […] The experiment was carried out in quadruplicate. […] Stock Dilution Setup
Two 96 well microtiter plates set up which were incubated at 20 C (both 96 well plates were identical, i.e. the experiment was done in duplicate). Each well on the plates was set up with 100 L1-stage N2 animals in NGM with a 1:20 dilution of concentrated HB101 E. coli (food source) in a volume of 50 μl. Compounds (see below) were then added to the wells. For water controls and compound stocks/dilutions in water (DH LA, NAC) 1 μl was added to each well (1:50 dilutions). For DMSO controls and compound stocks/dilutions in DMSO (LA) 0.5 μl was added to each well (1:100 dilutions). […]

Row | Molecule | sciatic endoneutral blood flow [1] | sciatic motor nerve NCV [1] | NMCV (diabetic rats [2]) | neuropathic symptoms and defects ([3]; 600 mg i.v. per day for 3 weeks) | neuropathic defects and cardiac autonomic neuropathy ([3]; subsequent oral treatment for 4-7 months) | Equilibrium time (rats) | % increase in running time (Wobbler mice) | tolerability and toxicity (mice and rats; individually or in combination at high doses) | dose that can be parenterally administered (mice and rats; parenteral) | Density of tibial nerve degenerate elements (diabetic rats [4]) | Number of tibial nerve degenerate elements (diabetic rats [4]) | cleavability ([5]; under experimental conditions) | Rate of hydrolysis (cleavage) ([5]; water, pH 5.5 to 8.0, RT) | hydrolysis ([5]; water, pH 6.0, RT (20° C.), TLC, visual observation) | rate of hydrolysis ([5]; water, pH 7.0 and above, RT (20° C.), TLC, visual observation) | time within which almost complete hydrolysis was noted ([5]; water, pH 8.0, RT (20° C.), TLC, visual observation) | stability ([5]; water, under pH 5.0, RT (20° C.), TLC, visual observation) | sensitivity / response rate in 11 step dose response (C. elegans [6]; listed as LC) | sensitivity / response rate in 11 step dose response (C. elegans [6]; listed as Lipoic Acid+N-Acetyl Carnitine conjugate) | toxicity (C. elegans [7])
1 | O=C(O)CCCCC1CCSS1 (centres unmarked) [LA, Lipoic acid] | improved | improved | 39.9 ± 2.1 m/sec | appears to reduce pain, paraethesia and numbness, and to improve neuropathic defects | reduces neuropathic defects an improves cardiac autonomic neuropathy | 9.9 ± 0.8 s | 40 ± 3.9% | good tolerability and limited toxicity | ≤ 100 mg/kg | 0.20 ± 0.04 per 100 nm^2 | 590 ± 0.70 |  |  |  |  |  |  |  |  | 
2 | Acetyl-L-Carnitine-Lipoic acid conjugate [LC Conjugate] |  |  |  |  |  |  |  |  |  |  |  | completely cleavable | pH dependent | Mild hydrolysis | quite noticeable | ≤ 90 min | stable | increases sensitivity not at lower stimulus intensities, but instead at higher intensities | Possible higher response rate at higher stimulus intensities | No toxic effects; also recorded: no toxicity observed
